In patent publication US9732075B2, “Benzimidazole-proline derivatives” (IDORSIA PHARMACEUTICALS LTD, priority 2012, dated 2017):

Columns and labels:
[1] = target: human orexin-1 receptor (Homo sapiens (Human), UniProt O43613); experiment: In vitro assay: intracellular calcium measurements (FLIPR), antagonistic activity; type: cell-based; conditions: CHO cells expressing human orexin-1 receptor, orexin-A agonist, geometric mean, read-out: IC50 Ox1
Summary of the method: (§1)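 Orexin-A-evoked calcium rise (3 nM final, roughly EC70) was recorded with fluo-4 in recombinant CHO cells, human receptor subtype 1 or 2.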

[2] = target: human orexin-2 receptor (Homo sapiens (Human), UniProt O43614); experiment: as above; type: cell-based; conditions: CHO cells expressing human orexin-2 receptor, orexin-A agonist, geometric mean, read-out: IC50 Ox2
Summary of the method: as §1

Chain of human orexin-2 receptor (O43614 whole entry): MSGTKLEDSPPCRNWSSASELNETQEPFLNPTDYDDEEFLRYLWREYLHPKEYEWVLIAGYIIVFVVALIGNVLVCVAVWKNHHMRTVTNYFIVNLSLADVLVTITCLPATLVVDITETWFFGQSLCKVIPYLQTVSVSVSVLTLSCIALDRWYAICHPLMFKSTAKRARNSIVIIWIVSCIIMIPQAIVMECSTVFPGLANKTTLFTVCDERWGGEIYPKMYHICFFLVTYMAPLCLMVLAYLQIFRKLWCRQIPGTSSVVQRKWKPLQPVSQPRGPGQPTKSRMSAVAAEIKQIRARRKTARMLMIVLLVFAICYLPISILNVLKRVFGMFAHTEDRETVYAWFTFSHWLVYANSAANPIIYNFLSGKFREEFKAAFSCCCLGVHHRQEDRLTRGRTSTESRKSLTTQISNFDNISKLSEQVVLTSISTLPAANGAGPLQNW
Chain of human orexin-1 receptor (O43613 whole entry): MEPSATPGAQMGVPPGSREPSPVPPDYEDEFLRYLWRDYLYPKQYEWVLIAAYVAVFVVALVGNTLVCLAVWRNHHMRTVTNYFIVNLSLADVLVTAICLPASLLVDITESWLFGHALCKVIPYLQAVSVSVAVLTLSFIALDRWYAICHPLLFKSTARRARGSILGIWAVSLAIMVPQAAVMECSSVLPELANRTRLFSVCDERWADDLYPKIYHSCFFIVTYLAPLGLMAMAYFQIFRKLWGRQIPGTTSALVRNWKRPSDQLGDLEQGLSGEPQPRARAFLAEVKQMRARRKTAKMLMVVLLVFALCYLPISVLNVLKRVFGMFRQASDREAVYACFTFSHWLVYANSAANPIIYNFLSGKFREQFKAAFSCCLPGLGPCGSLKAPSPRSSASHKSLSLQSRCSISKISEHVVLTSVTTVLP

| SMILES | IC50 [1] | IC50 [2] |
| --- | --- | --- |
| Cc1cccc(-c2sc(C)nc2C(=O)N2CCC[C@@]2(C)c2nc3ccc(F)c(F)c3[nH]2)c1 [Ex. 5.210] | 3 nM | 27 nM |
| COc1cccc(-c2ccc(C)cc2C(=O)N2CCC[C@@]2(C)c2nc3cc(C(F)(F)F)ccc3[nH]2)c1 [Ex. 5.188] | 23 nM | 119 nM |
| C[C@@]1(c2nc3cc(C(F)(F)F)c(Cl)cc3[nH]2)CCCN1C(=O)c1cc(C(F)(F)F)ccc1-n1nccn1 [Ex. 5.144] | 20 nM | 210 nM |
| Cc1ccc(C(=O)N2CC[C@H](C)[C@H]2c2nc3cc(Cl)c(C)cc3[nH]2)c(-c2ncccn2)c1 [Ex. 4.130] | 11 nM | 128 nM |
| CSc1ccc2nc([C@@H]3CCCN3C(=O)c3cnc(C)nc3-c3cc(Cl)cc(Cl)c3)[nH]c2c1 [Ex. 1.59] | 77 nM | 252 nM |
| COc1ccc(-c2sc(C)nc2C(=O)N2CC[C@H](C)[C@H]2c2nc3c(C(F)(F)F)cccc3[nH]2)cc1 [Ex. 4.159] | 4 nM | 215 nM |
| Cc1c(Cl)ccc2[nH]c([C@]3(C)CCCN3C(=O)c3nc(-c4cccc(F)c4)sc3-c3ccc(F)cc3)nc12 [Ex. 5.234] | 8 nM | 131 nM |
| Cc1ccc(-c2cccc(F)c2)c(C(=O)N2CCC[C@@]2(C)c2nc3cc(C(F)(F)F)ccc3[nH]2)c1 [Ex. 5.182] | 10 nM | 55 nM |
| Cc1cccc(C(=O)N2CCC[C@@]2(C)c2nc3cc(C(F)(F)F)ccc3[nH]2)c1-n1nccn1 [Ex. 5.179] | 368 nM | 1120 nM |
| Cc1c(Cl)ccc2[nH]c([C@@H]3[C@@H](C)CCN3C(=O)c3cc(C#N)ccc3-c3ccccc3)nc12 [Ex. 4.166] | 2 nM | 568 nM |
| Cc1c(Cl)ccc2[nH]c([C@]3(C)CCCN3C(=O)c3nc(-c4cccc(F)c4F)sc3-c3ccc(F)cc3)nc12 [Ex. 5.251] | 13 nM | 774 nM |
| Cc1nc(C(=O)N2CC[C@H](C)[C@H]2c2nc3c(Cl)cccc3[nH]2)c(-c2ccc(Cl)cc2)s1 [Ex. 4.120] | 14 nM | 725 nM |
| COc1cc2nc([C@]3(C)CCCN3C(=O)c3cc(Cl)ccc3-n3nccn3)[nH]c2cc1OC [Ex. 5.64] | 17 nM | 19 nM |
| CSc1cccc2nc([C@@H]3CCCN3C(=O)c3nc(C)sc3-c3cccc(Cl)c3)[nH]c12 [Ex. 1.13] | 15 nM | 24 nM |
| Cc1ccc2[nH]c([C@]3(C)CCCN3C(=O)c3ccccc3-c3cccc(F)c3)nc2c1C [Ex. 5.116] | 39 nM | 19 nM |
| COc1ccc2nc([C@@H]3CCCN3C(=O)c3cc(F)ccc3-n3nccn3)[nH]c2c1 [Ex. 1.156] | 1810 nM | 29 nM |
| Cc1ccc(-n2nccn2)c(C(=O)N2CCC[C@@]2(C)c2nc3c(C(C)C)cccc3[nH]2)c1 [Ex. 5.29] | 13 nM | 59 nM |
| Cc1ccc(C(=O)N2CC[C@H](C)[C@H]2c2nc3cc(Cl)c(C)cc3[nH]2)c(-n2nccn2)c1 [Ex. 4.72] | 4 nM | 51 nM |
| Cc1c(Cl)ccc2[nH]c([C@@H]3[C@@H](C)CCN3C(=O)c3c(F)cccc3-c3ccccc3)nc12 [Ex. 4.169] | 4 nM | 892 nM |
| COc1ccc(-c2ccc(C#N)cc2)c(C(=O)N2CCC[C@@]2(C)c2nc3c(C)c(Cl)ccc3[nH]2)c1F [Ex. 5.308] | 21 nM | 122 nM |
| Cc1ccc(-c2nc(C(=O)N3CCC[C@@]3(C)c3nc4cc(Cl)c(C(F)(F)F)cc4[nH]3)c(-c3ccc(F)cc3)s2)cc1 [Ex. 5.288] | 38 nM | 1340 nM |
| Cc1c(Cl)ccc2[nH]c([C@@H]3[C@@H](C)CCN3C(=O)c3cc(C(F)(F)F)ccc3-c3ccccc3)nc12 [Ex. 4.170] | 11 nM | 1430 nM |
| Cc1ccc(-c2nc(C(=O)N3CCC[C@@]3(C)c3nc4c(C)c(Cl)ccc4[nH]3)c(-c3ccc(F)cc3)s2)c(F)c1 [Ex. 5.253] | 12 nM | 1190 nM |
| Cc1ccc(-c2ncccn2)c(C(=O)N2CC[C@H](C)[C@H]2c2nc3c(C)c(Cl)ccc3[nH]2)c1F [Ex. 4.176] | 15 nM | 1070 nM |
| Cc1ccc(-c2ccc3c(c2)OCO3)c(C(=O)N2CCC[C@@]2(C)c2nc3cc(C(F)(F)F)ccc3[nH]2)c1 [Ex. 5.198] | 18 nM | 34 nM |
| Cc1nc(C(=O)N2CCC[C@H]2c2nc3cc(Cl)c(C)cc3[nH]2)c(-c2ccccc2)s1 [Ex. 1.143] | 14 nM | 16 nM |
| Cc1ccc(-c2ccc(OC(F)(F)F)cc2)c(C(=O)N2CCC[C@@]2(C)c2nc3cc(C(F)(F)F)ccc3[nH]2)c1 [Ex. 5.187] | 310 nM | > 2590 nM |
| Cc1cccc(-c2ccc(C)cc2C(=O)N2CCC[C@@]2(C)c2nc3cc(C(F)(F)F)ccc3[nH]2)c1 [Ex. 5.189] | 16 nM | 62 nM |
| Cc1ccc(-c2ccc(C)cc2C(=O)N2CCC[C@@]2(C)c2nc3cc(C)c(C)cc3[nH]2)cc1 [Ex. 5.100] | 17 nM | 27 nM |
| COc1ccc(-n2nccn2)c(C(=O)N2CCC[C@H]2c2nc3cccc(SC)c3[nH]2)c1F [Ex. 1.168] | 20 nM | 57 nM |

Continued, values first:

| IC50 [1] | IC50 [2] | SMILES |
| --- | --- | --- |
| 148 nM | 25 nM | C=C1C[C@@H](c2nc3cc(C)c(C)cc3[nH]2)N(C(=O)c2cc(C)ccc2-n2cccn2)C1 [Ex. 6.201] |
| 9 nM | 3 nM | C=C1C[C@@H](c2nc3cc(C(C)(C)C)ccc3[nH]2)N(C(=O)c2cc(C)c(C)cc2-n2nccn2)C1 [Ex. 6.165] |
| 7 nM | 124 nM | Cc1ccc(-n2nccn2)c(C(=O)N2CCC[C@@]2(C)c2nc3cc(F)c(Br)cc3n2C)c1 [Ex. 7.32] |
| 233 nM | 15 nM | C=C1C[C@@H](c2nc3cc(C(C)(C)C)ccc3[nH]2)N(C(=O)c2nc(C)ccc2-n2nccn2)C1 [Ex. 6.174] |
| 43 nM | 61 nM | Cc1ccc(-c2ccc(C)cc2C(=O)N2CCC[C@@]2(C)c2nc3cc(C)c(C)cc3n2CC2CC2)cc1 [Ex. 7.39] |
| 14 nM | 7 nM | C=C1C[C@@H](c2nc3c(OC)ccc(OC)c3[nH]2)N(C(=O)c2nc(C)sc2-c2ccc(C)c(C)c2)C1 [Ex. 6.48] |
| 8 nM | 30 nM | CCn1c([C@]2(C)CCCN2C(=O)c2cc(C)ccc2-c2ccc(C)cc2)nc2cc(C)c(C)cc21 [Ex. 7.38] |
| 218 nM | 91 nM | C=C1CN(C(=O)c2ccccc2-c2ccccc2)C(C)(c2nc3cc(OC)ccc3[nH]2)C1 (stereo not shown) [Ex. 6.150] |
| 17 nM | 4 nM | C=C1C[C@@H](c2nc3ccc(Cl)c(C)c3[nH]2)N(C(=O)c2nc(C)ccc2-n2nccn2)C1 [Ex. 6.127] |
| 27 nM | 60 nM | Cc1ccc(-c2ccccc2F)c(C(=O)N2CCC[C@@]2(C)c2nc3cc(C)c(C)cc3n2CCF)c1 [Ex. 7.52] |
| 1 nM | 4 nM | Cc1c(Cl)ccc2c1nc([C@]1(C)CCCN1C(=O)c1cc(Cl)ccc1-n1nccn1)n2C [Ex. 7.22] |
| 1 nM | 3 nM | Cc1ccc(-n2nccn2)c(C(=O)N2CCC[C@@]2(C)c2nc3c(C)c(Cl)ccc3n2C)c1 [Ex. 7.3] |
| 11 nM | 20 nM | Cc1ccc(-c2ccc(C)cc2C(=O)N2CCC[C@@]2(C)c2nc3cc(C)c(C)cc3n2C)cc1 [Ex. 7.37] |
| 10 nM | 2 nM | C=C1C[C@@H](c2nc3c(C)cccc3[nH]2)N(C(=O)c2nc(C)sc2-c2cccc(Cl)c2)C1 [Ex. 6.44] |
